Active and inactive are the calls of the source. The rule behind the calls is not given here.
Assays:
Rattus norvegicus [1] = assay: Antialzheimer activity against Abeta(1 to 42)-induced coginitive deficit Wistar rat model assessed as increase in time spent in the platform zone at 5 mg/kg, po administered for 7 days by Morris water maze test; format: functional, organism-based; settings: time 7.0 day
Rattus norvegicus [2] = assay: Antialzheimer activity against Abeta(1 to 42)-induced coginitive deficit Wistar rat model assessed as increase in total number of platform crossings at 5 mg/kg, po administered for 7 days by Morris water maze test; format: functional, organism-based; settings: time 7.0 day
Rattus norvegicus [3] = assay: (§1) Antialzheimer activity against scopalamine-induced amnesia Wistar rat model assessed as inhibition of cognition impairment by measuring increase in spontaneous alterations at 5 mg/kg, po administered for 7 days and on day 7 administered with scopolamine at 30 mins before drug administration by Y-maze test; format: functional, organism-based; settings: time 7.0 day
in vitro = settings: PAMPA
Description: Permeability of the compound at 25 ug/ml incubated or 18 hrs by PAMPA-BBB assay

Cholinesterase = Cholinesterase (Equus caballus, UniProt P81908); assay: Inhibition of equine serum BuChE using butyrylthiocholine iodide as substrate preincubated with enzyme for 10 mins followed by substrate addition and measured every 1 min for 20 mins by spectrophotometric analysis
Sequence of Cholinesterase (P81908 whole entry): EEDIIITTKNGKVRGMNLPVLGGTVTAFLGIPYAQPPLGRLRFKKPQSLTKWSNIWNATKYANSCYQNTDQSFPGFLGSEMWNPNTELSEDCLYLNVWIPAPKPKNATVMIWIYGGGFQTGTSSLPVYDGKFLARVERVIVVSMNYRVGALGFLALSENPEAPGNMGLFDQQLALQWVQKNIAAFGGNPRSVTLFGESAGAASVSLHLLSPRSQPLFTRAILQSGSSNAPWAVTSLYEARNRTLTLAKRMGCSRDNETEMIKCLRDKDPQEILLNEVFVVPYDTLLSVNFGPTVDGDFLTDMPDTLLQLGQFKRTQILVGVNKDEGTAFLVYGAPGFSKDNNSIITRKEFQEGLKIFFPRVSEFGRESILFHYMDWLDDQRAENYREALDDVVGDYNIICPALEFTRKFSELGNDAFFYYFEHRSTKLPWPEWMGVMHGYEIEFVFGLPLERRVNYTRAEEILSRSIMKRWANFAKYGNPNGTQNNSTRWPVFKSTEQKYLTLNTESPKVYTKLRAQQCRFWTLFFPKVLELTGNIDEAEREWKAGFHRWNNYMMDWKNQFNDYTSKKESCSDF

[4] = Antagonist activity at GluN1-1a/GluN2B (unknown origin) expressed in xenopus laevis oocytes assessed as inhibition of glycine/glutamate-induced channel current incubated for 20s measured at holding potential of -70 mV by two-electrode voltage clamp technique; format: cell-based, Homo sapiens; settings: Oocyte
[5] = Selectivity index, ratio of IC50 for equine serum BuChE to IC50 for electric eel AChE
Acetylcholinesterase [6] = molecular target: T1, Acetylcholinesterase (Electrophorus electricus, UniProt O42275); assay: Inhibition of electric eel AChE using acetylthiocholine iodide as substrate preincubated with enzyme for 10 mins followed by substrate addition and measured every 1 min for 20 mins by spectrophotometric analysis
T1 sequence (O42275 whole entry): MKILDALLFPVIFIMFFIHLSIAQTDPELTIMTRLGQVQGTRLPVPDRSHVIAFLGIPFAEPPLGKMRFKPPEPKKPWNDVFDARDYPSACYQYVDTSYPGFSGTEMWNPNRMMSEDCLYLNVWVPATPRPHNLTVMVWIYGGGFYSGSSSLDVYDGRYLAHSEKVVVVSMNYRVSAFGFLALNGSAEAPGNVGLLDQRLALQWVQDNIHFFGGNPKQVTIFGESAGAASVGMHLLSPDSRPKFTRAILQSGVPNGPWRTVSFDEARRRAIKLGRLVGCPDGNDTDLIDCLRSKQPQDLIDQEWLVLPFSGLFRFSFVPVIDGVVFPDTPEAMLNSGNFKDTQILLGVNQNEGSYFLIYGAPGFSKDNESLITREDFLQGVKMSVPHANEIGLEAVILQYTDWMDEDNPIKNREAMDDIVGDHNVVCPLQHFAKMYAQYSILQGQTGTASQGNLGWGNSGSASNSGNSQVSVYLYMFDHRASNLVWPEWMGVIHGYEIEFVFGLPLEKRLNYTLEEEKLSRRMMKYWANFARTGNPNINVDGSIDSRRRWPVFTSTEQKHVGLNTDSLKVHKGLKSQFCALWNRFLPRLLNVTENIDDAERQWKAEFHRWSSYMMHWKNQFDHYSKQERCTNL

Homo sapiens = species: Homo sapiens; assay: Antagonist activity at NMDA receptor (unknown origin) relative to control; settings: filed as antagonist, concentration not given here
[7] = Antagonist activity at GluN1-1a/GluN2A (unknown origin) expressed in xenopus laevis oocytes assessed as inhibition of glycine/glutamate-induced channel current incubated for 20s measured at holding potential of -70 mV by two-electrode voltage clamp technique; format: cell-based; settings: Homo sapiens, Oocyte
[8] = Antagonist activity at GluN1-1b/GluN2B (unknown origin) expressed in xenopus laevis oocytes assessed as inhibition of glycine/glutamate-induced channel current incubated for 20s measured at holding potential of -70 mV by two-electrode voltage clamp technique; format: cell-based; settings: Homo sapiens, Oocyte
HEK-293T [9] = assay: Cytotoxicity against HEK293T cells assessed as reduction in cell viability at 0.3 to 30 uM measured after 44 hrs by WST-1 assay; format: toxicity, cell-based; settings: human, dose 0.3-30 µM
[10] = molecular target: T2, Acetylcholinesterase (Rattus norvegicus) (UniProt P37136); assay: Ex vivo inhibition of AChE activity in brain of scopalamine-induced amnesia Wistar rat model at 2.5 to 10 mg/kg, po administered for 7 days and on day 7 administered with scopolamine at 30 mins before drug administration; format: functional, organism-based; settings: dose 2.5-10 mg/kg, time 7.0 day
T2 sequence (whole entry): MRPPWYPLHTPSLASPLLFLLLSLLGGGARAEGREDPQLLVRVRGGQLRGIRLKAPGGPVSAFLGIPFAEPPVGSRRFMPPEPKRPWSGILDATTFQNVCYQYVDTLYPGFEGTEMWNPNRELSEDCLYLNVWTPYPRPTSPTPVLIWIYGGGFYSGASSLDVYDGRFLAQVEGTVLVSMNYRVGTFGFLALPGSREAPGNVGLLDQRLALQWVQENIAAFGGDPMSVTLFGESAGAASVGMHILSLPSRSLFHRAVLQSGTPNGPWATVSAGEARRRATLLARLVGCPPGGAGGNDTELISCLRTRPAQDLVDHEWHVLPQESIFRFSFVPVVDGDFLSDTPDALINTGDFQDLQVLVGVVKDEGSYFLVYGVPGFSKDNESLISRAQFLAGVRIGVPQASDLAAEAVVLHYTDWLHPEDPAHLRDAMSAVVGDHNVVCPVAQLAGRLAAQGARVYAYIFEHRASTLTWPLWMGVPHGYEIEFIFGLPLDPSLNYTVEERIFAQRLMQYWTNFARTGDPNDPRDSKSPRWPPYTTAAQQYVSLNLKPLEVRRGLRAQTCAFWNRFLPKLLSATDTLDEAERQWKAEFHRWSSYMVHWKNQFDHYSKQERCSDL

Rattus norvegicus [11] = assay: as §1, with “2.5 to 10” for “5”; format: functional, organism-based; settings: dose 2.5-10 mg/kg, time 7.0 day
[12] = Antagonist activity at GluN1-1b/GluN2D (unknown origin) expressed in xenopus laevis oocytes assessed as inhibition of glycine/glutamate-induced channel current incubated for 20s measured at holding potential of -70 mV by two-electrode voltage clamp technique; format: cell-based; settings: Homo sapiens, Oocyte
[13] = Antagonist activity at GluN1-1a/GluN2D (unknown origin) expressed in xenopus laevis oocytes assessed as inhibition of glycine/glutamate-induced channel current incubated for 20s measured at holding potential of -70 mV by two-electrode voltage clamp technique; format: cell-based; settings: Homo sapiens, Oocyte
[14] = Antagonist activity at GluN1-1b/GluN2A (unknown origin) expressed in xenopus laevis oocytes assessed as inhibition of glycine/glutamate-induced channel current incubated for 20s measured at holding potential of -70 mV by two-electrode voltage clamp technique; format: cell-based; settings: Homo sapiens, Oocyte
Rattus norvegicus [15] = assay: as §1, with “10” for “5”; format: functional, organism-based; settings: time 7.0 day
[16] = molecular target: T2, Acetylcholinesterase (Rattus norvegicus); assay: Ex vivo inhibition of AChE activity in brain of scopalamine-induced amnesia Wistar rat model at 10 mg/kg, po administered for 7 days and on day 7 administered with scopolamine at 30 mins before drug administration; format: functional, organism-based; settings: time 7.0 day
SH-SY5Y = assay: Neuroprotective activity against human SH-SY5Y cells assessed as reduction of Abeta(1 to 42)-induced cytotoxicity upto 10 uM pretreated with Abeta42 for 24 hrs followed by incubation with compound for 72 hrs by MTT assay; format: functional, cell-based
[17] = Antagonist activity at GluN1-1a/GluN2C (unknown origin) expressed in xenopus laevis oocytes assessed as inhibition of glycine/glutamate-induced channel current incubated for 20s measured at holding potential of -70 mV by two-electrode voltage clamp technique; format: cell-based; settings: Homo sapiens, Oocyte
Rattus norvegicus [18] = assay: Antialzheimer activity against Abeta(1 to 42)-induced coginitive deficit Wistar rat model assessed as increase in total number of platform crossings at 10 mg/kg, po administered for 7 days by Morris water maze test; format: functional, organism-based; settings: time 7.0 day
[19] = molecular target: Amyloid-beta precursor protein (Homo sapiens) (UniProt P05067); assay: Inhibition of AChE-induced Amyloid beta (1 to 42 residues) (unknown origin) aggregation at Abeta(1 to 42) to compound concentration ratio of 10:5 to 10:20 uM incubated for 48 hrs by ThT fluorescence method
Sequence of Amyloid-beta precursor protein (Homo sapiens) (P05067 whole entry, the tested form may be a part): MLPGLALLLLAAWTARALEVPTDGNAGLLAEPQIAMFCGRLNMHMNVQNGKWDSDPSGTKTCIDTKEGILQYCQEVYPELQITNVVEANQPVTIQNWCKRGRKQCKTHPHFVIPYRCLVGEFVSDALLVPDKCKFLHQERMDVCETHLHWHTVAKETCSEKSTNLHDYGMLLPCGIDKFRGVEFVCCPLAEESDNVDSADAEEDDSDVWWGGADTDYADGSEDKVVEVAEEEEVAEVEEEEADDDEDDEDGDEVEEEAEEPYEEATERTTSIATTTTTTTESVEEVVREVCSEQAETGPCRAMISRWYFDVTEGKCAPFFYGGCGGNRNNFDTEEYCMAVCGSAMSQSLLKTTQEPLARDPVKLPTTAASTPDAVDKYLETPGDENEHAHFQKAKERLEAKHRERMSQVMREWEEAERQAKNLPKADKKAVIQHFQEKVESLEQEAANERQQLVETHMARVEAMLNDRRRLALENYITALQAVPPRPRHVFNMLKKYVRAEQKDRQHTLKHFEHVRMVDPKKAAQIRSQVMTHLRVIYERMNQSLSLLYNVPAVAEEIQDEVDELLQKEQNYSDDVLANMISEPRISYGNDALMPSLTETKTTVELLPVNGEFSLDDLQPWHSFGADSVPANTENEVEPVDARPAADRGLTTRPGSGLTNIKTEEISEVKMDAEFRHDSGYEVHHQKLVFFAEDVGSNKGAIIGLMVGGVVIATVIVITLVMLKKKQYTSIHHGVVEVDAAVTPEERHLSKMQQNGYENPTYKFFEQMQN

Acetylcholinesterase [20] = molecular target: T3, Acetylcholinesterase (Homo sapiens, UniProt P22303); assay: Inhibition of human AChE
T3 sequence (P22303 whole entry): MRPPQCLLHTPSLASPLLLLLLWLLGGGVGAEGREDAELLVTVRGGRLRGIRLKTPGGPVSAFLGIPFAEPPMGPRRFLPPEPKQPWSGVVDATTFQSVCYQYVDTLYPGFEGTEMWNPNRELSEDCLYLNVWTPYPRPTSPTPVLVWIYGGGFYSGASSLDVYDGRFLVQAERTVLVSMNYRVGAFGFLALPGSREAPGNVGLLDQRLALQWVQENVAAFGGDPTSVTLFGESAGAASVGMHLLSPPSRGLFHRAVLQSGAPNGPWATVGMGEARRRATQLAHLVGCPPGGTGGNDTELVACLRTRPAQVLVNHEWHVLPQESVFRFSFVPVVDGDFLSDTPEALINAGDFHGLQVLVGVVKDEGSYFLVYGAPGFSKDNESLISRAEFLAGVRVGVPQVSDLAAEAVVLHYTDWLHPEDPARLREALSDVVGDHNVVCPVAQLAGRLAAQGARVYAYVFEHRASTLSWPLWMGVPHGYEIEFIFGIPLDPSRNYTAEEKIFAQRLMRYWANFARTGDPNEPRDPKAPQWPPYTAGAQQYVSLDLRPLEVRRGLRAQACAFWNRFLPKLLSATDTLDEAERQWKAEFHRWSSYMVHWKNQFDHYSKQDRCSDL

[21] = Antagonist activity at GluN1-1b/GluN2C (unknown origin) expressed in xenopus laevis oocytes assessed as inhibition of glycine/glutamate-induced channel current incubated for 20s measured at holding potential of -70 mV by two-electrode voltage clamp technique; format: cell-based; settings: Homo sapiens, Oocyte
HEK-293T [22] = assay: Cytotoxicity against HEK293T cells assessed as reduction in cell viability at 100 uM measured after 44 hrs by WST-1 assay; format: toxicity, cell-based; settings: human
[23] = molecular target: Amyloid-beta precursor protein (Homo sapiens) (UniProt P05067); assay: Inhibition of self-induced Amyloid beta (1 to 42 residues) (unknown origin) aggregation at Abeta(1 to 42) to compound concentration ratio of 10:5 to 10:20 uM incubated for 48 hrs by ThT fluorescence method
Rattus norvegicus [24] = assay: Antialzheimer activity against Abeta(1 to 42)-induced coginitive deficit Wistar rat model assessed as increase in time spent in the platform zone at 10 mg/kg, po administered for 7 days by Morris water maze test; format: functional, organism-based; settings: time 7.0 day
Acetylcholinesterase [25] = molecular target: T1, Acetylcholinesterase; assay: Non-competitive inhibition of electric eel AChE by Dixon plot analysis
[26] = molecular target: Glutamate receptor ionotropic, NMDA 2A (Homo sapiens, UniProt Q05586+Q12879); assay: Antagonist activity at GluN2A NMDA receptor (unknown origin)
Sequence of Glutamate receptor ionotropic, NMDA 2A (Q12879 whole entry, one chain of several): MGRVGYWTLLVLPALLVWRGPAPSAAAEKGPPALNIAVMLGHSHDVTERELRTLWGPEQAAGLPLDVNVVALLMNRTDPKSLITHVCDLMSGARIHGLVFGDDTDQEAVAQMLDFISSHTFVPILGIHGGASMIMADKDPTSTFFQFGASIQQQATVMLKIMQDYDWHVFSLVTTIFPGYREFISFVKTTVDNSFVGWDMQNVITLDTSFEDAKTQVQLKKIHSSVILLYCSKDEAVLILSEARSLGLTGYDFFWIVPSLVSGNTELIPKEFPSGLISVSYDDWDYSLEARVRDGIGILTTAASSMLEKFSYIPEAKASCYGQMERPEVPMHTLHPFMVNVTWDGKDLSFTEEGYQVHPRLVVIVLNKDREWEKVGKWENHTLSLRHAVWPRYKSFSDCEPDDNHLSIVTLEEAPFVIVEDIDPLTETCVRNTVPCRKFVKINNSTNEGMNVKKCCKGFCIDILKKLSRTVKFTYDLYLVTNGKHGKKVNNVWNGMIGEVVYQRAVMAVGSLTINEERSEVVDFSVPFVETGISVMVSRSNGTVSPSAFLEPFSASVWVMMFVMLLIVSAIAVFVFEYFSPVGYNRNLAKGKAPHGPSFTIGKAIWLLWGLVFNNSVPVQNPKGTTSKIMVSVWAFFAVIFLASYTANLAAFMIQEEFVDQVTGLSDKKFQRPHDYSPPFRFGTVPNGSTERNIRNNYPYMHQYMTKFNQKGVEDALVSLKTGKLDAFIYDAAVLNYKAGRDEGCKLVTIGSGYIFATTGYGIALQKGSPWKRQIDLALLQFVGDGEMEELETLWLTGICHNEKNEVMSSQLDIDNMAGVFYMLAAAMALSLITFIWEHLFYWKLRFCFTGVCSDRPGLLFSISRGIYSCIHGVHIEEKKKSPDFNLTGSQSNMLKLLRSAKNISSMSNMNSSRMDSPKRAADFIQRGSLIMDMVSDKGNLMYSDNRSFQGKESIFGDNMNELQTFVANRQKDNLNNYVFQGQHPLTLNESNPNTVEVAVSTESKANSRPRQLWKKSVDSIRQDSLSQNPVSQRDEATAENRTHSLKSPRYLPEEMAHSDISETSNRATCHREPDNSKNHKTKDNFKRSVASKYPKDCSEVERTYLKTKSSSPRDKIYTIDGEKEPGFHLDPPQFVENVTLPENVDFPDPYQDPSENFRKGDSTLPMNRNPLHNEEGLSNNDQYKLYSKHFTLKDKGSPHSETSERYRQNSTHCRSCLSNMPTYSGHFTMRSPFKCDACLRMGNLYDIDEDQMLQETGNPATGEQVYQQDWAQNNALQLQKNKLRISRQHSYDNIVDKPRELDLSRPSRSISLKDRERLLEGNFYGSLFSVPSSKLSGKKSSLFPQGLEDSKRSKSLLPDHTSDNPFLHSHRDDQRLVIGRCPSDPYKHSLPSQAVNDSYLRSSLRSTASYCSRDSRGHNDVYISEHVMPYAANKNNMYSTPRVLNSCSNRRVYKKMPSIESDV

Acetylcholinesterase [27] = molecular target: T3, Acetylcholinesterase; assay: Inhibition of AChE (unknown origin)
[28] = Antagonist activity at NMDA receptor (unknown origin); design: species or system Homo sapiens
HEK-293T [29] = assay: Cytotoxicity against HEK293T cells assessed as reduction in cell viability at 0.3 to 100 uM measured after 44 hrs by WST-1 assay; format: toxicity, cell-based; settings: human, dose 0.3-100 µM

Compound	Papp at 18 h, 25 ug/ml (in vitro)	IC50 (Cholinesterase)	IC50 [4]	Ratio IC50 [5]	IC50 (Acetylcholinesterase [6])	also measured
COc1cc2c(cc1OC)C(=O)C(CC1CCN(Cc3ccccc3)CC1)C2 (centres undefined)						Activity (Rattus norvegicus [1]): Active; Activity (Rattus norvegicus [2]): Active; Activity (Rattus norvegicus [3]): Active
O=[N+]([O-])c1ccc(Cn2cc(CNC34CC5CC(CC(C5)C3)C4)nn2)cc1	6.83 ×10⁻⁶ cm/s	9.54 µM	21.8 µM	5.93	1.61 µM	
c1ccc(CCNC23CC4CC(CC(C4)C2)C3)cc1						inhibition (Homo sapiens): 89.5%
Fc1ccc(Cn2cc(CNC3CCCCCC3)nn2)cc1	8.42 ×10⁻⁶ cm/s	10.5 µM	97.3 µM	5.75	1.82 µM	
Cc1ccc(Cn2cc(CNC34CC5CC(CC(C5)C3)C4)nn2)cc1	7.48 ×10⁻⁶ cm/s	6.04 µM	197 µM	17.8	0.34 µM	
Clc1ccc(Cn2cc(CNC34CC5CC(CC(C5)C3)C4)nn2)cc1	8.24 ×10⁻⁶ cm/s	3.8 µM	5.05 µM	28.1	0.135 µM	IC50 [7]: 129 µM; IC50 [8]: 2.86 µM; Activity (HEK-293T [9]): Non-Toxic; inhibition [10]: Dose-Dependent Effect; Activity (Rattus norvegicus [11]): Dose-Dependent Effect; IC50 [12]: 239 µM; IC50 [13]: 789 µM; IC50 [14]: 142 µM; Activity (Rattus norvegicus [15]): Active; inhibition [16]: Active; Activity (SH-SY5Y): Active; IC50 [17]: 143 µM; Activity (Rattus norvegicus [18]): Active; inhibition [19]: Dose-Dependent Effect; IC50 (Acetylcholinesterase [20]): 0.133 µM; IC50 [21]: 52.8 µM; Activity (HEK-293T [22]): Toxic; inhibition [23]: Dose-Dependent Effect; Activity (Rattus norvegicus [24]): Active
CC(C)c1ccc(Cn2cc(CNC34CC5CC(CC(C5)C3)C4)nn2)cc1	7.63 ×10⁻⁶ cm/s	7.83 µM	79.5 µM	9.79	0.799 µM	
O=[N+]([O-])c1ccc(Cn2cc(CNC3CCCCCC3)nn2)cc1	6.31 ×10⁻⁶ cm/s	19.2 µM	116 µM	4.14	4.64 µM	
Brc1ccc(Cn2cc(CNC34CC5CC(CC(C5)C3)C4)nn2)cc1	8.75 ×10⁻⁶ cm/s	2.55 µM	3.88 µM	29.6	0.086 µM	IC50 [7]: 47.4 µM; IC50 [8]: 3 µM; Activity (HEK-293T [9]): Non-Toxic; inhibition [10]: Dose-Dependent Effect; Activity (Rattus norvegicus [11]): Dose-Dependent Effect; IC50 [12]: 99.5 µM; IC50 [13]: 112 µM; IC50 [14]: 36.5 µM; Activity (Rattus norvegicus [15]): Active; inhibition [16]: Active; Activity (SH-SY5Y): Active; IC50 [17]: 90.2 µM; Activity (Rattus norvegicus [18]): Active; inhibition [19]: Dose-Dependent Effect; IC50 (Acetylcholinesterase [20]): 0.092 µM; IC50 [21]: 45.1 µM; Ki (Acetylcholinesterase [25]): 0.026 µM; Activity (HEK-293T [22]): Toxic; inhibition [23]: Dose-Dependent Effect; Activity (Rattus norvegicus [24]): Active
c1ccc(Cn2cc(CNC3CCCCCC3)nn2)cc1	7.2 ×10⁻⁶ cm/s	11.4 µM		8.02	1.41 µM	
Cc1ccc(Cn2cc(CNC3CCCCCC3)nn2)cc1	7.35 ×10⁻⁶ cm/s	19.3 µM	63.6 µM	15.8	1.22 µM	
CC(C(O)c1ccc(O)cc1)N1CCC(Cc2ccccc2)CC1 (centres undefined) [IFENPRODIL]						IC50 [26]: 146 µM
Brc1ccc(Cn2cc(CNC3CCCCCC3)nn2)cc1	6.72 ×10⁻⁶ cm/s	17.3 µM	38.2 µM	31.4	0.55 µM	IC50 (Acetylcholinesterase [20]): 0.621 µM
Cc1ccc(-c2cn(Cc3ccc4ccccc4c3)nn2)cc1C(=O)NCCN1CCOCC1						IC50 (Acetylcholinesterase [27]): 7.23 µM
F[C@]12CC3C[C@](NCCCCCNc4c5c(nc6cc(Cl)ccc46)CCCC5)(C[C@H](C1)c1ccccc13)C2						IC50 [28]: 0.9 µM
c1ccc(Cn2cc(CNC34CC5CC(CC(C5)C3)C4)nn2)cc1	6.95 ×10⁻⁶ cm/s	4.72 µM		13.1	0.36 µM	
Fc1ccc(Cn2cc(CNC34CC5CC(CC(C5)C3)C4)nn2)cc1	7.75 ×10⁻⁶ cm/s	3.27 µM		16.9	0.194 µM	
COc1ccc2nc3c(c(NCCCCCNC(=S)N[C@]45CC6C[C@@H](C[C@@H](C6)C4)C5)c2c1)CCCC3						Ki [28]: 1.8 µM; IC50 (Acetylcholinesterase [20]): 0.47 µM
c1ccc(CNC23OC4C5C6CC(C7C6C4C72)C53)cc1 (centres undefined)						IC50 [28]: 2.98 µM
CC(C)c1ccc(Cn2cc(CNC3CCCCCC3)nn2)cc1	7.24 ×10⁻⁶ cm/s	15.7 µM	217 µM	10.3	1.52 µM	
Clc1ccc(Cn2cc(CNC3CCCCCC3)nn2)cc1	6.84 ×10⁻⁶ cm/s	16.5 µM		27.1	0.607 µM	IC50 (Acetylcholinesterase [20]): 0.927 µM
CC12CC3CC(C)(C1)CC(N)(C3)C2 [MEMANTINE]	6.84 ×10⁻⁶ cm/s		0.778 µM			IC50 [7]: 3.47 µM; IC50 [8]: 1.27 µM; IC50 [12]: 0.592 µM; IC50 [13]: 0.367 µM; IC50 (Acetylcholinesterase [27]): 0.78 µM; IC50 [14]: 3.39 µM; IC50 [17]: 0.222 µM; IC50 [21]: 0.318 µM; Activity (HEK-293T [29]): Toxic
COc1ccc2c(c1)c(=O)c1ccccc1n2Cc1cn(Cc2ccc(Cl)cc2)nn1						IC50 (Acetylcholinesterase [27]): 7.31 µM
